In paper PMC6934184, “Selective DNA-PKcs inhibition extends the therapeutic index of localized radiotherapy and chemotherapy” (The Journal of Clinical Investigation, 2019) one finds inhibition data, which are given here for one molecule.

The term inhibition denotes the relative decrease from the control value, in per cent.

The structures appear in SMILES notation.

In the assay the target is T1, PRKCH (PKC eta) (Homo sapiens, UniProt P24723).
T1 construct: purchased Thermo Fisher Scientific (Life Technologies) SelectScreen
Nature of the assay: SelectScreen Z'LYTE. It counts as biochemical. The gist of the method:
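NU5455 was profiled across the SelectScreen Broad panel of kinase activity and binding assays. Z'LYTE reactions such as CSF1R ran at apparent Km ATP, while the Adapta CAMK1 assay used ATP listed as 10. Values are given as percent.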

T1 sequence (P24723 whole entry): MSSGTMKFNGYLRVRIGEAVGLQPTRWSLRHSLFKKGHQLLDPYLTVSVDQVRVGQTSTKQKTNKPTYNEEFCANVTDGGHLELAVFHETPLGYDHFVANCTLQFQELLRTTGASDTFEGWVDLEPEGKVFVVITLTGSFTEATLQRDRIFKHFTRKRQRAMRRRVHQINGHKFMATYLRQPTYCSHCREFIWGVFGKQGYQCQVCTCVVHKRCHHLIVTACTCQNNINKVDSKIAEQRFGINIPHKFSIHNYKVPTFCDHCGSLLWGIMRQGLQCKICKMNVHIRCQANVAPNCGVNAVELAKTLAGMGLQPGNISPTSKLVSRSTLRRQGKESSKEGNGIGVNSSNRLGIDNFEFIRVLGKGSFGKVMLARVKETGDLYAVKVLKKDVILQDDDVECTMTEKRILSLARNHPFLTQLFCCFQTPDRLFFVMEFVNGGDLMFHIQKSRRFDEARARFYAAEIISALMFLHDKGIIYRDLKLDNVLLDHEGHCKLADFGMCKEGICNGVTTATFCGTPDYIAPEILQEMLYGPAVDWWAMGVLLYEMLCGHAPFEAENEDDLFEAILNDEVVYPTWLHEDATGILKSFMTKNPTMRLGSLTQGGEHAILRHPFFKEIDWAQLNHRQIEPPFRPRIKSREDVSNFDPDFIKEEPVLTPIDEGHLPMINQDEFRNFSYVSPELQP

Turning to `CN(C(=O)CN1CCOCC1)c1ccc2sc3c(-c4cccc5c(=O)cc(N6CC7CCC(C6)O7)oc45)cccc3c2c1` [NU5455], the inhibition at 1 µM was -4.6%.
